The values below come from patent US3965105A, “Phenyl-lower-alkylamines” (Sterling Drug Inc., priority 1975, dated 1976).

Assay [1] is described as follows: inhibition of adjuvant-induced arthritis test, modified (adjuvant arthritis, AA). The class given is in vivo. The following applies: oral, text: millimoles (μM)/kg.). As to the method: (§1) Anti-inflammatory activity was determined using (1) the inhibition of carrageenin-induced foot edema test essentially described by […] and (2) a modification of the inhibition of adjuvant-induced arthritis test described by Pierson, J. Chronic Diseases 16, 863 (1963) and Glenn et al., Am. J. Vet. Res. 26, 1180 (1965).
(§2) The phenyl-lower-alkylamines of formula I of the invention have been tested in the carrageenin edema (CE) and adjuvant arthritis (AA) tests and found to have anti-inflammatory activity. Data so-obtained, stated in terms of percent inhibition at a dose expressed in terms of millimoles (μM)/kg.,are given below. All data were obtained on oral administration.

Assay [2] is described as follows: inhibition of carrageenin-induced foot edema test (carrageenin edema, CE). Format: in vivo. The following applies: oral, text: millimoles (μM)/kg.). As to the method: as §1, §2
Background: The carrageenan paw model is a standard test of acute inflammation.

For `CC(C)Cc1ccc(C(C)CN2CCCCC2CC2CCCCC2)cc1` (stereo not drawn) [Example 1, 2-cyclohexylmethyl-1-[2-(4-isobutylphenyl)propyl]piperidine], the “AA (% Inhib.)” value in assay [1] (dose 0.324 (head: mmol/kg) was 75%. The “CE (% Inhib.)” value in assay [2] (dose 0.08 (head: mmol/kg) is 0%; in assay [2] (dose 0.324 (head: mmol/kg), 5%.

Regarding `CCN(CC)CCCC(C)NCC(C)c1ccc(CC(C)C)cc1` (stereo not drawn) [Example 2, N-[2-(4-isobutylphenyl)propyl]-N-[5-(N',N'-diethylamino)-2-pentyl]amine], the entries for the “AA (% Inhib.)” value in assay [1] (dose 0.01 (head: mmol/kg), in assay [1] (dose 0.04 (head: mmol/kg) and in assay [1] (dose 0.16 (head: mmol/kg) were 32%, 34% and 63%, respectively. The “CE (% Inhib.)” value in assay [2] (dose 0.02 (head: mmol/kg) is 0%; in assay [2] (dose 0.08 (head: mmol/kg), 17%; in assay [2] (dose 0.324 (head: mmol/kg), 39%.

As to `CC(C)Cc1ccc(C(C)CN2C(C)CCCC2C)cc1` (stereo not drawn) [Example 3, 2,6-dimethyl-1-[2-(4-isobutylphenyl)propyl]piperidine], in assay [1] (dose 0.324 (head: mmol/kg), the “AA (% Inhib.)” value came out at 55%. The “CE (% Inhib.)” value in assay [2] (dose 0.08 (head: mmol/kg) came to 0%; in assay [2] (dose 0.324 (head: mmol/kg) it was 8%.

Regarding `CC(CN1CCCCC1CC1CCCCC1)c1cccc(Br)c1` (stereo not drawn) [Example 4, 2-cyclohexylmethyl-1-[2-(3-bromophenyl)propyl]piperidine], the “CE (% Inhib.)” value in assay [2] (dose 0.005 (head: mmol/kg) is 7%; in assay [2] (dose 0.02 (head: mmol/kg), 4%; in assay [2] (dose 0.08 (head: mmol/kg), 0%.

In the case of `CC(CN1CCCCC1CC1CCCCC1)c1ccccc1` (stereo not drawn) [Example 5, 2-cyclohexylmethyl-1-(2-phenylpropyl)piperidine], the results for the “CE (% Inhib.)” value in assay [2] (dose 0.005 (head: mmol/kg), in assay [2] (dose 0.02 (head: mmol/kg) and in assay [2] (dose 0.08 (head: mmol/kg) were 0%, 16% and 13%, respectively.
